How the values were obtained:
[1] = test system: characteristic stretching or writhing syndrome induced by phenylquinone; assay: animal or person; assay type: in vivo, female white mice; conditions: for ED50: Mus musculus, po, 0.5 h, read-out: Effect ED50, Oral PQW
[2] = test system: anorexigenic effect (milk spots consumed); assay: animal or person; assay type: in vivo, Female CF1 mice; conditions: Mus musculus, po, read-out: Anorexigenic Effect, Effective Dose
[3] = test system: Straub tail induced by morphine; assay: narcotic antagonist test: prevention of Straub tail induced by morphine sulfate; assay type: in vivo, Female CF1 S mice; conditions: for ED50: Mus musculus, sc, subcutaneous, challenge 30 mg/kg morphine sulfate i.p., read-out: Effect ED50, Subcutaneous Anti-Straub Tail
[4] = test system: Straub tail induced by morphine; conditions: known narcotic antagonists, Blumberg et al.; cited from earlier work

Compound | ED50 [1] [mg/kg] | analgesic potency compared with morphine ([1]; mouse, in vivo) | minimal effective dose [2] [mg/kg] | ED50 [3] [mg/kg] | narcotic antagonism capability / antagonist character ([3]; Straub tail antagonism, in words) | prevention of the induction of Straub tail by morphine [4]
OCC1CC2CCC13CN(CC1CC1)CCC31c3cccc(O)c3OC21 (single isomer, unassigned) [Example 9, 3-cyclopropylmethyl-5-hydroxymethyl-1,2,3,4,5,6,7,7a-octahydro-4a,7-ethanobenzofuro[3,2-e]isoquinolin-9-ol] | 0.28 | several times greater potency than morphine |  |  |  | 
CC(C)(C)C(C)(O)C1CC2CCC13CN(CC1CC1)CCC31c3cccc(O)c3OC21 (single isomer, unassigned) [Example 11, 3-Cyclopropylmethyl-5-(2-hydroxy-3,3-dimethyl-2-butyl)-1,2,3,4,5,6,7,7a-octahydro-4a,7-ethanobenzofuro[3,2-e]isoquinolin-9-ol] | 5.2 |  |  |  |  | 
COc1cccc2c1OC1C3CCC4(CC3)CN(C)CCC214 (stereo not shown) [Example 1, 9-methoxy-3-methyl-1,2,3,4,5,6,7,7a-octahydro-4a,7-ethanobenzofuro[3,2-e]isoquinoline] | 20.5 |  | 20 | > 18 |  | 
CN1CCC23c4cccc(O)c4OC2C2CCC3(CC2)C1 (stereo not shown) [Example 2, 3-methyl-1,2,3,4,5,6,7,7a-octahydro-4a,7-ethanobenzofuro[3,2-e]isoquinolin-9-ol] | 12 |  | > 324 | 0.05 |  | 
CCCN1CCC23c4cccc(OC)c4OC2C2CCC3(CC2)C1 (stereo not shown) [Example 3, 9-Methoxy-3-propyl-1,2,3,4,5,6,7,7a-octahydro-4a,7-ethanobenzofuro[3,2-e]isoquinoline] | > 135 |  |  | 0.19 |  | 
CCCN1CCC23c4cccc(O)c4OC2C2CCC3(CC2)C1.Cl (stereo not shown) [Example 4, 3-propyl-1,2,3,4,5,6,7,7a-octahydro-4a,7-ethanobenzofuro[3,2-e]isoquinolin-9-ol hydrochloride] | 99 |  | 7 | 0.009 | pure narcotic antagonists | 
Oc1cccc2c1OC1C3CCC4(CC3)CN(CC3CC3)CCC214 (stereo not shown) [Example 6, 3-Cyclopropylmethyl-1,2,3,4,5,6,7,7a-octahydro-4a,7-ethanobenzofuro[3,2-e]isoquinolin-9-ol] | 4.4 |  | 46 | 0.005 |  | 
CC(O)C1CC2CCC13CN(CC1CC1)CCC31c3cccc(O)c3OC21 (stereo not shown) [Example 7, 3-Cyclopropylmethyl-5-(1-hydroxyethyl)-1,2,3,4,5,6,7,7a-octahydro-4a,7-ethanobenzofuro[3,2-e]isoquinolin-9-ol] | 0.78 |  |  | 0.08 |  | 
CC(O)C1CC2C=CC13CN(CC1CC1)CCC31c3cccc(O)c3OC21 (stereo not shown) [Example 8, 3-Cyclopropylmethyl-5-(1-hydroxyethyl)-1,2,3,4,5,6,7,7a-octahydro-4a,7-ethenobenzofuro[3,2-e]isoquinolin-9-ol] | 0.51 |  |  | 0.024 |  | 
CN1CC[C@]23c4c5ccc(O)c4O[C@H]2[C@@H](O)C=C[C@H]3[C@H]1C5 [Morphine, reference compound] | 3 |  |  |  |  | 
C=CCN1CC[C@]23c4c5ccc(O)c4O[C@H]2[C@@H](O)C=C[C@H]3[C@H]1C5 [Nalorphine] |  |  |  |  |  | prevent the induction of Straub tail in mice
C=CCN1CC[C@]23c4c5ccc(O)c4O[C@H]2C(=O)CC[C@@]3(O)[C@H]1C5 [Naloxone, reference compound] |  |  | 4.8 |  |  | prevent the induction of Straub tail in mice
CC(C)=CCN1CCC2(C)c3cc(O)ccc3CC1C2C (stereo not shown) [Pentazocine, reference compound] | 56 |  |  | 4 |  | 
